{"source": "paper PMC11477209", "about": "“Toxicological Evaluation of Kaempferol and Linearolactone as Treatments for Amoebic Liver Abscess Development in Mesocricetus auratus” (International Journal of Molecular Sciences, 2024)", "key": {"[1]": {"test_system": "E. histolytica trophozoites (virulent HM-1 strain)"}, "[2]": {"test_system": "E. histolytica trophozoites (virulent HM-1 strain)", "assay": "microbe, parasite or virus in culture", "details": "Entamoeba histolytica, 48 h, read-out: IC50 HM-1, 48 h, flow cytometry"}, "BEAS-2B cells": {"test_system": "BEAS-2B cells", "assay": "MTT cytotoxicity assay", "format": "cell-based, human", "details": "24 h"}, "[3]": {"assay": "Paraclinical analysis (serum biochemistry, hematic biometry) in ALA hamsters", "format": "in vivo, Mesocricetus auratus", "protocol": "Serum was obtained by centrifugation at 3500 rpm and frozen at −70 °C until analysis. Hematic biometry was performed in a hematology autoanalyzer system (BC-2300, Mindray; Shenzhen, China), and biochemical parameters were made on an automatic medical system (Prestige 24i, Tokyo Boeki; Kanagawa, Japan)."}, "[4]": {"details": "in vivo", "protocol": "After blood samples were obtained, the hamsters were sacrificed with a lethal dose of sodium pentobarbital, followed by a cervical fracture. They were mounted on a dissecting board for the necropsy. A complete mid-laparotomy was performed to remove the lungs, spleen, heart, liver, and kidneys. An excisional biopsy was performed to recover the ALA lesions for morphometric analysis. The organs and ALA lesions were rinsed with 1× PBS, weighed, and adherent tissue was removed. […] Later, the inclusion protocol was performed to obtain histological sections (3 μm thick) with a rotatory microtome (RM2125-RTS, Leica; Wetzlar, Germany). Tissue slices were stained with hematoxylin-eosin (Merck; Rahway, NJ, USA), mounted on coverslips with Entellan^TM-New (Merck; Rahway, NJ, USA), and observed with optical microscopy (Eclipse 80i, Nikon; Tokio, Japan)."}, "[5]": {"test_system": "E. histolytica trophozoites (amoebic liver abscess)", "assay": "Amoebic liver abscess (ALA) model, antiparasitic protocol", "format": "in vivo, Mesocricetus auratus", "excerpt": "M. auratus was used as an animal model because the hamster is naturally susceptible to infection by E. histolytica and can develop amoebic colitis or extraintestinal complications such as an ALA [71]. In this context, the hamster can be used to search for new alternative therapeutic agents against amoebiasis. The hamsters were acquired from Charles River Laboratories Inc. (Wilmington, MA, USA) in 2017 by Centro de Investigación y de Estudios Avanzados del Instituto Politécnico Nacional ([…]-IPN). […] Male hamsters (sexually mature and homozygous) weighing 95 ± 5 g and ≈10 weeks old were selected for the experiments. They were maintained in aseptic conditions at 25 ± 1 °C, 50 ± 3% humidity, a 12 h photoperiod, and ad libitum access to a standard diet (LabDiet; Richmond, IN, USA) and water (Figure 5A). The hamsters were housed in polycarbonate boxes (five per box), with an American Iron and Steel Institute (AISI) lid and wood shavings as bedding, in a controlled room of the Animal Production and Experimentation Unit (UPEAL) from […]-IPN (Figure 5A). Additionally, the health state of the hamsters and their adaptation to the new laboratory conditions were evaluated for 15 days to decrease their stress and anxiety levels. This study was carried out according to the Official Mexican Regulations (NOM-062-ZOO-1999) and NC3Rs ARRIVE [60, 72]. The protocol was approved by the Institutional Animal Care and Use Committee (Reg. No. 0183-16). Finally, the hamsters were not subjected to any previous experimental procedure or any additional treatment before beginning the experimental procedures (see File S1, NC3Rs ARRIVE Guidelines Checklist). Compounds that are prohibited and/or not recommended for use in animals by the American Veterinary Medical Association (Guidelines for the Euthanasia of Animals) were not used.\nThese experiments were performed with three independent biological replicates. For each replicate, twenty-five hamsters were randomly distributed (simple type) into five experimental groups (five animals per group). The sample size was determined based on the Organization for Economic Cooperation and Development (OECD) recommendations that establish the minimum number of individuals required for the tests so as not to sacrifice animals unnecessarily. Laparotomy was performed in aseptic conditions by using depilation, iodine solution, as well as sterile field cloths. Subsequently, an intra-hepatic puncture was made to deliver 1.5 × 10^6 virulent E. histolytica trophozoites in 100 μL of 1× PBS into the left hepatic lobe for ALA induction (Figure 5A-3). The injection site was immediately covered by applying a gel foam pad to maintain hemostasis. The abdominal layers were sutured discontinuously by single vertical stitches using Vicryl synthetic absorbable suture with a triangular pointed half circle needle. Irregular edges or folds in the surgical wound were eliminated to avoid tissue devitalization or possible infections. The development of a hepatic ALA was monitored for 4 days (Figure 5A-4).\n(Figure 5B). The compounds were administered by the i.p. route because the peritoneal cavity presents rapid fluid absorption into the bloodstream, and initial biotransformation by the gastrointestinal tract is avoided. […] The hamsters were evaluated 24 h post-treatment to detect any signs of discomfort/pain or toxicity. The humane endpoint criteria used in this study were >20% body weight loss overnight, cachexia, recumbence, lethargy, respiratory distress, inability to reach food and water, lack of grooming, and ulceration around the surgical site, among others. Additionally, the weight of hamsters was determined at the beginning and end of the experiment with an electronic bascule (CS200, Ohaus; Parsippany, NJ, USA), and the ALA volume was calculated based on imaging (Figure 5B-1). […]"}, "[6]": {"details": "Chinese hamster (CHO-K1) and human (BEAS-2B)"}, "CHO-K1 cells": {"test_system": "CHO-K1 cells", "assay": "MTT cytotoxicity assay", "format": "cell-based, Chinese hamster", "details": "24 h, MTT"}}, "data": [{"smiles": "Cc1ncc([N+](=O)[O-])n1CCO", "note": "[MTZ, metronidazole, reference compound]", "values": [{"measurement": "apoptotic trophozoites", "setting": "[1]", "result": 2, "unit": "%"}, {"measurement": "decrease of size and granularity of the cell population", "setting": "[1]", "result": 52, "unit": "%"}, {"measurement": "necrotic trophozoites", "setting": "[1]", "result": 62.2, "unit": "%"}, {"measurement": "biological activity symbol on IC50 HM-1", "setting": "[1]; 48 h", "result": "++"}, {"measurement": "IC50", "setting": "[2]", "result": 0.16, "unit": "µg/mL"}, {"measurement": "biological activity symbol on IC50 BEAS-2B", "setting": "BEAS-2B cells", "result": "-"}, {"measurement": "IC50", "setting": "BEAS-2B cells; Homo sapiens, BEAS-2B", "result": 400, "unit": "µg/mL"}, {"measurement": "MPV", "setting": "[3]; blood, ALA hamsters, i.p. 4 days", "result": "8 ± 0.1", "unit": "fL"}, {"measurement": "TB/AL ratio", "setting": "[3]; drug toxicity ratio", "result": "0.38 ± 0.16"}, {"measurement": "neutrophil/lymphocyte ratio", "setting": "[3]; hematic ratio", "result": "1.15 ± 0.7"}, {"measurement": "Band neutrophils", "setting": "[3]; in vivo", "result": 0, "unit": "%"}, {"measurement": "Basophils", "setting": "[3]; in vivo", "result": 0, "unit": "%"}, {"measurement": "Eosinophils", "setting": "[3]; in vivo", "result": 0, "unit": "%"}, {"measurement": "Immature forms", "setting": "[3]; in vivo", "result": 0, "unit": "%"}, {"measurement": "Lymphocytes", "setting": "[3]; in vivo", "result": "50 ± 13", "unit": "%"}, {"measurement": "Monocytes", "setting": "[3]; in vivo", "result": 0, "unit": "%"}, {"measurement": "Segmented neutrophils", "setting": "[3]; in vivo", "result": "51 ± 13", "unit": "%"}, {"measurement": "ALT (GPT)", "setting": "[3]; in vivo, ip", "result": "135 ± 23", "unit": "U/L"}, {"measurement": "AST (GOT)", "setting": "[3]; in vivo, ip", "result": "81 ± 24", "unit": "U/L"}, {"measurement": "Albumin", "setting": "[3]; in vivo, ip", "result": "1.9 ± 0.3", "unit": "g/dL"}, {"measurement": "Alkaline phosphatase", "setting": "[3]; in vivo, ip", "result": "230 ± 11", "unit": "U/L"}, {"measurement": "Cholesterol", "setting": "[3]; in vivo, ip", "result": "116 ± 9.1", "unit": "mg/dL"}, {"measurement": "Creatinine", "setting": "[3]; in vivo, ip", "result": "1.01 ± 0.2", "unit": "mg/dL"}, {"measurement": "Direct bilirubin", "setting": "[3]; in vivo, ip", "result": "0.5 ± 0.1", "unit": "mg/dL"}, {"measurement": "Erythrocytes", "setting": "[3]; in vivo, ip", "result": "3.7 ± 0.2 x10 6/mm3"}, {"measurement": "GGT", "setting": "[3]; in vivo, ip", "result": "5.5 ± 2.3", "unit": "U/L"}, {"measurement": "Glucose", "setting": "[3]; in vivo, ip", "result": "161 ± 21", "unit": "mg/dL"}, {"measurement": "Hematocrit", "setting": "[3]; in vivo, ip", "result": "35 ± 2.6", "unit": "%"}, {"measurement": "Hemoglobin", "setting": "[3]; in vivo, ip", "result": "14. 7 ± 1.2 g/dL"}, {"measurement": "Indirect bilirubin", "setting": "[3]; in vivo, ip", "result": "0.20 ± 0.1", "unit": "mg/dL"}, {"measurement": "Leukocytes", "setting": "[3]; in vivo, ip", "result": "7.7 ± 2.6 x100/mm3"}, {"measurement": "MCH", "setting": "[3]; in vivo, ip", "result": "40 ± 1.6", "unit": "pg"}, {"measurement": "MCHC", "setting": "[3]; in vivo, ip", "result": "43 ± 1.4", "unit": "g/dL"}, {"measurement": "MCV", "setting": "[3]; in vivo, ip", "result": "94 ± 2.2", "unit": "fL"}, {"measurement": "PCT", "setting": "[3]; in vivo, ip", "result": "0.4 ± 0.1", "unit": "%"}, {"measurement": "PDW", "setting": "[3]; in vivo, ip", "result": "11 ± 0.4", "unit": "fL"}, {"measurement": "Platelets", "setting": "[3]; in vivo, ip", "result": "536 ± 148 x106/μL"}, {"measurement": "RDW-CV", "setting": "[3]; in vivo, ip", "result": "25.8 ± 3.3", "unit": "fL"}, {"measurement": "RDW-SD", "setting": "[3]; in vivo, ip", "result": "111 ± 12", "unit": "fL"}, {"measurement": "Total bilirubin", "setting": "[3]; in vivo, ip", "result": "0.7 ± 0.3", "unit": "mg/dL"}, {"measurement": "Total protein", "setting": "[3]; in vivo, ip", "result": "5.3 ± 0.9", "unit": "g/dL"}, {"measurement": "Triglycerides", "setting": "[3]; in vivo, ip", "result": "280 ± 75", "unit": "mg/dL"}, {"measurement": "Urea", "setting": "[3]; in vivo, ip", "result": "41.2 ± 1.4", "unit": "mg/dL"}, {"measurement": "BUN/CR ratio", "setting": "[3]; kidney damage ratio", "result": "19.6 ± 3.8"}, {"measurement": "urea/CR ratio", "setting": "[3]; kidney damage ratio", "result": "42 ± 8.15"}, {"measurement": "AST/ALT ratio (De Ritis ratio)", "setting": "[3]; liver injury ratio", "result": "< 1"}, {"measurement": "Heart largest diameter", "setting": "[4]", "result": "1.08 ± 0.04", "unit": "cm"}, {"measurement": "Heart weight", "setting": "[4]", "result": "0.38 ± 0.1", "unit": "g"}, {"measurement": "Kidneys largest diameter", "setting": "[4]", "result": "1.3 ± 0.08", "unit": "cm"}, {"measurement": "Kidneys weight", "setting": "[4]", "result": "0.52 ± 0.0", "unit": "g"}, {"measurement": "Liver largest diameter", "setting": "[4]", "result": "4 ± 0.15", "unit": "cm"}, {"measurement": "Liver weight", "setting": "[4]", "result": "5.76 ± 1.4", "unit": "g"}, {"measurement": "Lungs largest diameter", "setting": "[4]", "result": "2.5 ± 0.2", "unit": "cm"}, {"measurement": "Lungs weight", "setting": "[4]", "result": "0.68 ± 0.05", "unit": "g"}, {"measurement": "Spleen largest diameter", "setting": "[4]", "result": "3.3 ± 0.3", "unit": "cm"}, {"measurement": "Spleen weight", "setting": "[4]", "result": "0.2 ± 0.05", "unit": "g"}, {"measurement": "Survival rate", "setting": "ALA hamsters, i.p. 4 days", "result": 100, "unit": "%"}, {"measurement": "Toxicity signs", "setting": "in vivo, ip", "result": "None"}, {"measurement": "Edges", "setting": "[5]; ALA characteristics", "result": "Regular and well defined"}, {"measurement": "Leukocyte infiltrate", "setting": "[5]; ALA characteristics", "result": "−"}, {"measurement": "Liquid", "setting": "[5]; ALA characteristics", "result": "−"}, {"measurement": "Morphology", "setting": "[5]; ALA characteristics", "result": "Round"}, {"measurement": "ALA Volume", "setting": "[5]; MRI, i.p. 4 days", "result": "528 ± 183.5 * mm^3"}, {"measurement": "MRI T1 signal of ALA", "setting": "[5]; T1", "result": "Intermediate intensity"}, {"measurement": "MRI T2 signal of ALA", "setting": "[5]; T2", "result": "hypointense"}, {"measurement": "ALA Weight", "setting": "[5]; i.p. 4 days, KP 5, LL 10, MTZ 10 mg/kg/day", "result": "0.33 ± 0.32", "unit": "g"}, {"measurement": "LD50 (Theoretical)", "setting": "[6]", "result": 1026, "unit": "mg/kg"}, {"measurement": "biological activity symbol on IC50 CHO-K1", "setting": "CHO-K1 cells", "result": "-"}, {"measurement": "IC50", "setting": "CHO-K1 cells; Cricetulus griseus, CHO-K1, read-out: IC50 CHO-K1", "result": 500, "unit": "µg/mL"}]}]}
